What was measured:
Histone deacetylase 1 = Histone deacetylase 1 (Homo sapiens, UniProt Q13547); assay: Inhibition of human recombinant HDAC1 using Ac-Leu-Gly-Lys(Ac)-AMC as substrate by measuring fluorescence intensity incubated for 30 mins by microplate reader assay
A549 [1] = assay: Dark toxicity in human A549 cells assessed as reduction in cell viability incubated under dark for 48 hrs measured after 48 hrs by CCK8 assay; assay type: functional, cell-based; settings: A549, 48 h
A549 [2] = assay: Phototoxicity in human A549 cells assessed as reduction in cell viability irradiated 10 j/cm2 for 24 hrs followed by incubated for 24 hrs by CCK8 assay; assay type: functional, cell-based; settings: A549, light or radiation study
HCT-116 [3] = assay: Dark toxicity in human HCT-116 cells assessed as reduction in cell viability incubated under dark for 48 hrs measured after 48 hrs by CCK8 assay; assay type: functional, cell-based; settings: HCT-116, 48 h
HCT-116 [4] = assay: Phototoxicity in human HCT-116 cells assessed as reduction in cell viability irradiated 10 j/cm2 for 24 hrs followed by incubated for 24 hrs by CCK8 assay; assay type: functional, cell-based; settings: HCT-116, light or radiation study
A549 [5] = assay: Induction of reactive oxygen species generation in human A549 cells assessed as mean count value at 0.01 uM incubated for 24 hrs by DCFH-DA staining based fluorescence microscopy assay; assay type: functional
A549 [6] = assay: Induction of reactive oxygen species generation in human A549 cells assessed as mean count value at 0.05 uM incubated for 24 hrs by DCFH-DA staining based fluorescence microscopy assay; assay type: functional
A549 [7] = assay: Induction of autophagy in human A549 cells irradiated 10 j/cm2 at 0.1 uM after 24 hrs using fluorescent molecule DAPRed; assay type: functional

Chain of Histone deacetylase 1 (Q13547 whole entry): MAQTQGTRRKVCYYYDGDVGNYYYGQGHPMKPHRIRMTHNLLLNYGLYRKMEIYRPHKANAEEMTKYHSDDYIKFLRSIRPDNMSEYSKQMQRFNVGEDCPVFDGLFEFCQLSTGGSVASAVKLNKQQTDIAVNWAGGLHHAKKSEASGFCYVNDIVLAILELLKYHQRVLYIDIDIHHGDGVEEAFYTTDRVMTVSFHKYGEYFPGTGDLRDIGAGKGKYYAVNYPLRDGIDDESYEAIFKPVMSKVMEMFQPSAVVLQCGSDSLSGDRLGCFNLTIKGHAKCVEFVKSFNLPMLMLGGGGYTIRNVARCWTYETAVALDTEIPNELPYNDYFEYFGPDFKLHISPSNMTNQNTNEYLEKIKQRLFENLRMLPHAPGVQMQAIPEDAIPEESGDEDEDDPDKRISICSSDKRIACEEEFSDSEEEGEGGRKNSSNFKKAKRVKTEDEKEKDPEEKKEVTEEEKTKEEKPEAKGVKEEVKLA

Row | SMILES | IC50 (Histone deacetylase 1) | IC50 (A549 [1]) | IC50 (A549 [2]) | IC50 (HCT-116 [3]) | IC50 (HCT-116 [4]) | Activity (A549 [5]) | Activity (A549 [6]) | Activity (A549 [7])
1 | C=Cc1c(C)c2cc3nc(c(C(=O)OC)c4[nH]c(cc5nc(cc1[nH]2)C(C)=C5CC)c(C)c4C(=O)OC)[C@@H](CCC(=O)O)[C@@H]3C | – | 15700 nM | 300 nM | 31300 nM | 520 nM | – | – | –
2 | C=Cc1c(C)c2cc3nc(c(C(=O)OC)c4[nH]c(cc5nc(cc1[nH]2)C(C)=C5CC)c(C)c4C(=O)OC)[C@@H](CCC(=O)NCCCCC(=O)NO)[C@@H]3C | 49000 nM | 1510 nM | 180 nM | 2810 nM | 108 nM | – | – | –
3 | C=Cc1c(C)c2cc3nc(cc4[nH]c(cc5nc(cc1[nH]2)C(C)=C5CC)c(C)c4C(=O)OC)[C@@H](CCC(=O)Nc1ccc(C(=O)NO)cc1)[C@@H]3C | 28000 nM | 9240 nM | 900 nM | 4600 nM | 31 nM | – | – | –
4 | C=Cc1c(C)c2cc3nc(c(CC(=O)N[C@@H](CC(=O)O)C(=O)O)c4[nH]c(cc5nc(cc1[nH]2)C(C)=C5CC)c(C)c4C(=O)O)[C@@H](CCC(=O)O)[C@@H]3C [TALAPORFIN] | – | 181000 nM | 6210 nM | 50700 nM | 2950 nM | 125.93 | 153.14 | 19.08%
5 | C=Cc1c(C)c2cc3nc(cc4[nH]c(cc5nc(cc1[nH]2)C(C)=C5CC)c(C)c4C(=O)OC)[C@@H](CCC(=O)O)[C@@H]3C | – | 15300 nM | 920 nM | 21800 nM | 1470 nM | – | – | –
6 | C=Cc1c(C)c2cc3nc(c(C(=O)OC)c4[nH]c(cc5nc(cc1[nH]2)C(C)=C5CC)c(C)c4C(=O)OC)[C@@H](CCC(=O)NCCCCCC(=O)NO)[C@@H]3C | 88000 nM | 1360 nM | 120 nM | 6890 nM | 39 nM | – | – | –

Further lines, with some results ahead:

Row | IC50 (Histone deacetylase 1) | SMILES | IC50 (A549 [1]) | IC50 (A549 [2]) | IC50 (HCT-116 [3]) | IC50 (HCT-116 [4]) | Activity (A549 [5]) | Activity (A549 [6]) | Activity (A549 [7])
7 | 40000 nM | C=Cc1c(C)c2cc3nc(c(C(=O)OC)c4[nH]c(cc5nc(cc1[nH]2)C(C)=C5CC)c(C)c4C(=O)OC)[C@@H](CCC(=O)NCCCC(=O)NO)[C@@H]3C | 1840 nM | 220 nM | 5540 nM | 220 nM | – | – | –
8 | 224000 nM | C=Cc1c(C)c2cc3nc(c(C(=O)OC)c4[nH]c(cc5nc(cc1[nH]2)C(C)=C5CC)c(C)c4C(=O)OC)[C@@H](CCC(=O)Nc1ccccc1N)[C@@H]3C | 590 nM | 180 nM | 4140 nM | 23 nM | – | – | –
9 | 11000 nM | C=Cc1c(C)c2cc3nc(c(C(=O)OC)c4[nH]c(cc5nc(cc1[nH]2)C(C)=C5CC)c(C)c4C(=O)OC)[C@@H](CCC(=O)Nc1ccc(C(=O)NO)cc1)[C@@H]3C | 930 nM | 130 nM | 3490 nM | 270 nM | – | – | –
10 | 81000 nM | C=Cc1c(C)c2cc3nc(c(C(=O)OC)c4[nH]c(cc5nc(cc1[nH]2)C(C)=C5CC)c(C)c4C(=O)OC)[C@@H](CCC(=O)NCCCCC(=O)Nc1ccccc1N)[C@@H]3C | 3510 nM | 300 nM | 8630 nM | 260 nM | – | – | –
11 | 79000 nM | C=Cc1c(C)c2cc3nc(c(C(=O)OC)c4[nH]c(cc5nc(cc1[nH]2)C(C)=C5CC)c(C)c4C(=O)OC)[C@@H](CCC(=O)NO)[C@@H]3C | 370 nM | 130 nM | 4180 nM | 11 nM | – | – | –
12 | 90000 nM | C=Cc1c(C)c2cc3nc(c(C(=O)OC)c4[nH]c(cc5nc(cc1[nH]2)C(C)=C5CC)c(C)c4C(=O)OC)[C@@H](CCC(=O)NCCCCCC(=O)Nc1ccccc1N)[C@@H]3C | 2670 nM | 230 nM | 9280 nM | 210 nM | – | – | –
13 | 201000 nM | C=Cc1c(C)c2cc3nc(c(C(=O)OC)c4[nH]c(cc5nc(cc1[nH]2)C(C)=C5CC)c(C)c4C(=O)OC)[C@@H](CCC(=O)NCCCC(=O)Nc1ccccc1N)[C@@H]3C | 3730 nM | 310 nM | 9140 nM | 330 nM | – | – | –

Reference: ChEMBL document CHEMBL4814003, “Novel dual-mode antitumor chlorin-based derivatives as potent photosensitizers and histone deacetylase inhibitors for photodynamic therapy and chemotherapy” (Eur J Med Chem, 2021)
